According to US7247634B2, “Rifamycin derivatives effective against drug-resistant microbes” (Cumbre Pharmaceuticals Inc., priority 2004, dated 2007):
Converted amounts (≈) assume the structure as drawn.

How the values were obtained:
Assay type in all cases: cell-based
[1] = test system: Staphylococcus aureus ATCC29213; assay: MIC, microbroth dilution (NCCLS); settings: rifS strain, Cation-Adjusted Mueller-Hinton Broth, 37° C., read-out: Antimicrobial activity (MIC)
[2] = test system: Staphylococcus aureus ATCC29213 rpoB^D417Y; assay: microbe, parasite or virus in culture; settings: ATCC29213, read-out: Antimicrobial activity (MIC)
Summary of the method: (§1)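 MICs by NCCLS broth microdilution, incubation at 37 °C, in cation-adjusted Mueller-Hinton broth. Strains: rifampin-resistant S. aureus ATCC 29213 with rpoB D417Y or H418Y, and quinolone-resistant EN1252a carrying gyrA S84L plus grlA S80F.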

[3] = test system: Staphylococcus aureus ATCC29213 rpoB^H418Y; assay: microbe, parasite or virus in culture; settings: ATCC29213, read-out: Antimicrobial activity (MIC)
Summary of the method: as §1

[4] = test system: Staphylococcus aureus EN1252a gyrA^S84L grlA^S80F; assay: microbe, parasite or virus in culture; settings: read-out: Antimicrobial activity (MIC)
Summary of the method: as §1

[5] = test system: Staphylococcus epidermidis ATCC12228; assay: MIC, microbroth dilution (NCCLS); settings: rifS strain, Cation-Adjusted Mueller-Hinton Broth, 37° C., read-out: Antimicrobial activity (MIC)
[6] = test system: Streptococcus pneumoniae ATCC6303; assay: MIC, microbroth dilution (NCCLS); settings: rifS strain, THY Broth with 1 mg/mL catalase, 5% CO2, 37° C., read-out: Antimicrobial activity (MIC)
[7] = test system: Streptococcus pyogenes ATCC19615; assay: MIC, microbroth dilution (NCCLS); settings: rifS strain, THY Broth, 37° C., read-out: Antimicrobial activity (MIC)
[8] = test system: Enterococcus faecalis ATCC29212; assay: MIC, microbroth dilution (NCCLS); settings: rifS strain, BHI Broth, 37° C., read-out: Antimicrobial activity (MIC)
[9] = test system: Haemophilus influenzae ATCC10211; assay: MIC, microbroth dilution (NCCLS); settings: rifS strain, BHI Broth with NAD and hematin, 37° C., read-out: Antimicrobial activity (MIC)
[10] = test system: Escherichia coli ATCC25922; assay: MIC, microbroth dilution (NCCLS); settings: rifS strain, Cation-Adjusted Mueller-Hinton Broth, 37° C., read-out: Antimicrobial activity (MIC)
[11] = test system: Mycobacterium smegmatis ATCC700084; assay: MIC, microbroth dilution (NCCLS); settings: Mycolicibacterium smegmatis, rifS strain, Middlebrook Broth plus ADC Enrichment, 37° C., read-out: Antimicrobial activity (MIC)

Compound	MIC [1] [µg/mL]	MIC [2] [µg/mL]	MIC [3] [µg/mL]	MIC [4] [µg/mL]	MIC [5] [µg/mL]	MIC [6] [µg/mL]	MIC [7] [µg/mL]	MIC [8] [µg/mL]	MIC [9] [µg/mL]	MIC [10] [µg/mL]	MIC [11] [µg/mL]
COc1c(N2CC(NC3CCN(C4=C5NC(=O)/C(C)=C\C=C\[C@H](C)[C@H](O)[C@@H](C)[C@@H](O)[C@@H](C)[C@H](OC(C)=O)[C@H](C)[C@@H](OC)/C=C/O[C@@]6(C)Oc7c(C)c(O)c(c(c7C6=O)C4=O)C5=O)CC3)C2)c(F)cc2c(=O)c(C(=O)O)cn(C3CC3)c12 [Example 33, 3-{4-[1-(3-Carboxy-1-cyclopropyl-6-fluoro-8-methoxy-4-oxo-1,4-dihydroquinolin-7-yl)-azetidin-3-ylamino]-piperidin-1-yl}rifamycin S]	0.004 to 0.5 (≈ 0.00356 to 0.445 µM)	0.06 to 32 (≈ 0.0534 to 28.5 µM)	0.06 to 16 (≈ 0.0534 to 14.2 µM)	0.004 to 0.5 (≈ 0.00356 to 0.445 µM)	0.008 to 0.063 (≈ 0.00712 to 0.056 µM)	0.008 to 0.125 (≈ 0.00712 to 0.111 µM)	0.008 to 0.063 (≈ 0.00712 to 0.056 µM)	2 to 32 (≈ 1.78 to 28.5 µM)	0.125 to 2 (≈ 0.111 to 1.78 µM)	0.125 to 8 (≈ 0.111 to 7.12 µM)	0.5 to 64
COc1c(N2CC3CCCN(C4CCN(C5=C6NC(=O)/C(C)=C\C=C\[C@H](C)[C@H](O)[C@@H](C)[C@@H](O)[C@@H](C)[C@H](OC(C)=O)[C@H](C)[C@@H](OC)/C=C/O[C@@]7(C)Oc8c(C)c(O)c(c(c8C7=O)C5=O)C6=O)CC4)C3C2)c(F)cc2c(=O)c(C(=O)O)cn(C3CC3)c12 (stereo partly shown) [Example 35, 3-{4-[6-(3-Carboxy-1-cyclopropyl-6-fluoro-8-methoxy-4-oxo-1,4-dihydroquinolin-7-yl)-octahydro-pyrrolo[3,4-b]-pyrridin-1-yl]-piperidin-1-yl}rifamycin S]	0.004 to 0.5 (≈ 0.00339 to 0.424 µM)	0.06 to 32 (≈ 0.0509 to 27.2 µM)	0.06 to 16 (≈ 0.0509 to 13.6 µM)	0.004 to 0.5 (≈ 0.00339 to 0.424 µM)	0.008 to 0.063 (≈ 0.00679 to 0.0535 µM)	0.008 to 0.125 (≈ 0.00679 to 0.106 µM)	0.008 to 0.063 (≈ 0.00679 to 0.0535 µM)	2 to 32 (≈ 1.7 to 27.2 µM)	0.125 to 2 (≈ 0.106 to 1.7 µM)	0.125 to 8 (≈ 0.106 to 6.79 µM)	0.5 to 64
CO[C@H]1/C=C/O[C@@]2(C)Oc3c(C)c(O)c4c(c3C2=O)C(=O)C(N2CCC(N3CCN(c5c(F)cc6c(=O)c(C(=O)O)cn(C7CC7)c6c5Cl)CC3)CC2)=C(NC(=O)/C(C)=C\C=C\[C@H](C)[C@H](O)[C@@H](C)[C@@H](O)[C@@H](C)[C@H](OC(C)=O)[C@@H]1C)C4=O [Example 38, 3-{4-[1-(3-Carboxy-8-chloro-1-cyclopropyl-6-fluoro-4-oxo-1,4-dihydroquinolin-7-yl)-piperazin-4-yl]-piperidin-1-yl}rifamycin S]	0.004 to 0.5 (≈ 0.0035 to 0.438 µM)	0.06 to 32 (≈ 0.0525 to 28 µM)	0.06 to 16 (≈ 0.0525 to 14 µM)	0.004 to 0.5 (≈ 0.0035 to 0.438 µM)	0.008 to 0.063 (≈ 0.007 to 0.0551 µM)	0.008 to 0.125 (≈ 0.007 to 0.109 µM)	0.008 to 0.063 (≈ 0.007 to 0.0551 µM)	2 to 32 (≈ 1.75 to 28 µM)	0.125 to 2 (≈ 0.109 to 1.75 µM)	0.125 to 8 (≈ 0.109 to 7 µM)	0.5 to 64
COc1c(N2CCC(C(C)NC3CCN(C4=C5NC(=O)/C(C)=C\C=C\[C@H](C)[C@H](O)[C@@H](C)[C@@H](O)[C@@H](C)[C@H](OC(C)=O)[C@H](C)[C@@H](OC)/C=C/O[C@@]6(C)Oc7c(C)c(O)c(c(c7C6=O)C4=O)C5=O)CC3)C2)c(F)cc2c(=O)c(C(=O)O)cn(C3CC3)c12 (stereo partly shown) [Example 39, 3-{4-[1-(3-Carboxy-1-cyclopropyl-6-fluoro-8-methoxy-4-oxo-1,4-dihydroquinolin-7-yl)-pyrrolidin-3-ylethylamino]-piperidin-1-yl}rifamycin S]	0.004 to 0.5 (≈ 0.00343 to 0.429 µM)	0.06 to 32 (≈ 0.0514 to 27.4 µM)	0.06 to 16 (≈ 0.0514 to 13.7 µM)	0.004 to 0.5 (≈ 0.00343 to 0.429 µM)	0.008 to 0.063 (≈ 0.00686 to 0.054 µM)	0.008 to 0.125 (≈ 0.00686 to 0.107 µM)	0.008 to 0.063 (≈ 0.00686 to 0.054 µM)	2 to 32 (≈ 1.71 to 27.4 µM)	0.125 to 2 (≈ 0.107 to 1.71 µM)	0.125 to 8 (≈ 0.107 to 6.86 µM)	0.5 to 64
COc1c(N2CCN(C(=O)C3CN(C4=C5NC(=O)/C(C)=C\C=C\[C@H](C)[C@H](O)[C@@H](C)[C@@H](O)[C@@H](C)[C@H](OC(C)=O)[C@H](C)[C@@H](OC)/C=C/O[C@@]6(C)Oc7c(C)c(O)c(c(c7C6=O)C4=O)C5=O)C3)CC2)c(F)cc2c(=O)c(C(=O)O)cn(C3CC3)c12 [Example 45, 3-{3-[4-(3-Carboxy-1-cyclopropyl-6-fluoro-8-methoxy-4-oxo-1,4-dihydroquinolin-7-yl)-piperazin-1-yl-carbonyl]-azetidin-1-yl}rifamycin S]	0.004 to 0.5 (≈ 0.00351 to 0.439 µM)	0.06 to 32 (≈ 0.0527 to 28.1 µM)	0.06 to 16 (≈ 0.0527 to 14.1 µM)	0.004 to 0.5 (≈ 0.00351 to 0.439 µM)	0.008 to 0.063 (≈ 0.00703 to 0.0554 µM)	0.008 to 0.125 (≈ 0.00703 to 0.11 µM)	0.008 to 0.063 (≈ 0.00703 to 0.0554 µM)	2 to 32 (≈ 1.76 to 28.1 µM)	0.125 to 2 (≈ 0.11 to 1.76 µM)	0.125 to 8 (≈ 0.11 to 7.03 µM)	0.5 to 64
